Article PMC12487869, “Toward Imaging of the GABA Transporter Type 1 In Vivo: Quantitative Evaluation of 4 Novel PET Radiotracers in Nonhuman Primates” (Journal of Nuclear Medicine, 2025)

Experiments:
GAT-1 [1] = target: T1, GAT-1 (Macaca mulatta, UniProt H9ELS5); test: Guo plot comparing baseline VT of two radiotracers (relative affinity and BPND); format: in vivo, rhesus monkeys (Macaca mulatta)
T1 construct: from tissue; host or cells: brain of living rhesus monkeys (in vivo PET)
Text: (§1) Occupancy plots ([26]) were used to estimate tiagabine occupancy and the nondisplaceable volume of distribution (VND). This VND value was used to compute the nondisplaceable binding potential (BPND = VT/VND − 1). To compare the performance between 2 radiotracers, a Guo plot ([27]) was created, using baseline VT values, to assess the relative affinity and BPND values of each radiotracer.

GAT-1 [2] = target: T1, GAT-1; test: PET brain imaging with kinetic modeling (1TCM), baseline and tiagabine blocking scans; format: in vivo, rhesus monkeys (Macaca mulatta); conditions: for Median VT across ROIs: 1TCM
Description: Twenty scans were acquired from 4 rhesus monkeys (Macaca mulatta). Each monkey underwent baseline and blocking scans with ^18F-GATT-31, ^18F-GATT-34, ^18F-GATT-39, or ^18F-GATT-44 (Fig. 1) on a Focus-220 small-animal PET scanner (Siemens Healthineers).
(§2) Before each scan, each monkey was sedated with alfaxalone (2 mg/kg), midazolam (0.3 mg/kg), and dexmedetomidine (0.01 mg/kg), and anesthesia was maintained with 1.5%–2.5% isoflurane. Heart rate, blood pressure, respiration rate, and oxygen saturation were monitored continuously. An intravenous line was placed in the saphenous or cephalic vein for delivery of the radiotracer, as well as tiagabine during blocking studies (0.5 mg/kg administered 19 ± 4 min before radiotracer injections). A catheter was placed in the radial or tibial artery for blood sampling.
Before injection, a transmission scan was acquired. Starting with injection of the radiotracer, PET emission data were acquired in list-mode format and binned into 45 frames (6 × 30 s, 3 × 1 min, 2 × 2 min, and 34 × 5 min).
For region-of-interest (ROI) definition, each PET image was registered to an in-house rhesus monkey anatomical MRI template using the concatenation of a rigid-body transformation between the summed PET image (0–10 min) and corresponding monkey’s MRI (using the FMRIB Linear Image Registration Tool) and a nonlinear transformation matrix estimated between the monkey’s MRI and the MRI template (BioImage Suite software version 3.01). Regional time–activity curves were extracted for the following 11 ROIs: brain stem, caudate, cerebellum, cingulate cortex, frontal cortex, hippocampus, insula, occipital cortex, putamen, temporal cortex, and thalamus.
For each baseline and blocking scan, kinetic analysis was performed using a 1-tissue compartment model (1TCM), a reversible 2-tissue compartment model (2TCM; k4 > 0), and an irreversible 2-tissue compartment model (2TiCM; k4 = 0), including a blood volume fraction (Vb) term and a time-delay term. Vb was estimated for each time–activity curve using the whole-blood curve fitted with a sum of exponentials. The time delay (Δt) between the input function and the brain was estimated by fitting the first 10 min of the whole-brain time–activity curve to a 1TCM with 3 parameters: K1, Vb, and Δt (k2 was set to 0 because of the negligible radiotracer washout during the first 10 min). This estimated time delay value was then used in the time–activity curve fits. The primary parameters of interest were the influx constant (K1, expressed in microliters per minute per cubic centimeter, since values were low), the volume of distribution (VT, expressed in milliliters per cubic centimeter), and the net influx constant (Ki, expressed in milliliters per minute per cubic centimeter) for 2TiCM.

GAT-1 [3] = target: T1, GAT-1; test: Occupancy plots from baseline and tiagabine blocking PET scans (occupancy, VND, BPND); format: in vivo, rhesus monkeys (Macaca mulatta); design: key to BPND: BPND = VT/VND − 1 (dimensionless); conditions: for VND: occupancy plot; for Occupancy: tiagabine 0.5 mg/kg occupancy measured with this radiotracer
Description: as §2, §1

GAT-1 [4] = target: T1, GAT-1; test: Time stability of VT with shortened scan duration; format: in vivo, rhesus monkeys (Macaca mulatta); conditions: for Mean percent difference in VT on shortening scan from 180 to 120 min: baseline, 3 monkeys; for Mean percent difference in VT with respect to the 180-min value: blocking condition
Description: Finally, to assess the possibility of reducing scan duration, time stability was assessed for the most promising radiotracer by sequentially shortening the time–activity curves from 180 to 60 min and reestimating the kinetic parameters. Scan-time reduction was deemed possible if the VT values from these shortened time–activity curves were within 10% of those estimated with the full time–activity curves.

[5] = Plasma free fraction (fp), ultrafiltration method; format: in vitro ADME, rhesus monkeys (Macaca mulatta); conditions: measured in triplicate per scan, mean ± SD
Description: The plasma free fraction (fp) for each scan was measured in triplicate using the ultrafiltration method and calculated as the ratio of radioactivity in the filtrate to that in the plasma ([24]).

T1 sequence (H9ELS5 1-599): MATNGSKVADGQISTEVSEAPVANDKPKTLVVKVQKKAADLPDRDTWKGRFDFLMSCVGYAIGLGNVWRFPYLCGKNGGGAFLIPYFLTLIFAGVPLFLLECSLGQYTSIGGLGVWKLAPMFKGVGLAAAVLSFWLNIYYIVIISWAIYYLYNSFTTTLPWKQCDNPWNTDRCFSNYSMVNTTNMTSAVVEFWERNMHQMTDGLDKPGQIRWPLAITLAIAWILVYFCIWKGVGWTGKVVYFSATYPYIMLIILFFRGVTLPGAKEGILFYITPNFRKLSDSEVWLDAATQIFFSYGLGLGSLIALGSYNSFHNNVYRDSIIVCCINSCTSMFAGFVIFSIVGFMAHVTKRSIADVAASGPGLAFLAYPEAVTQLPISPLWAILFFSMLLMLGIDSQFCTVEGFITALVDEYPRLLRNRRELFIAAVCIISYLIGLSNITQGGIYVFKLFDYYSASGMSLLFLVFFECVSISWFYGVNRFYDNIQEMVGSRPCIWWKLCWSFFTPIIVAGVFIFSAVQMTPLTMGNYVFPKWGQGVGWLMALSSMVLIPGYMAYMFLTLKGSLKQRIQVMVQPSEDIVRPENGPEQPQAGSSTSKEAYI

SMILES: Cc1ccccc1C(=CCCN1CCCC(C(=O)O)C1)c1ccccc1[18F] (centres unmarked) [^18F-GATT-44]
- KD ratio (KD^GATT-31/KD^GATT-44) (GAT-1 [1]; Guo plot slope using measured fp values): 1.06
- BPND predicted higher than for ^18F-GATT-31 (GAT-1 [1]; Guo plot y-intercept, baseline VT): approximately 17%
- Median VT across ROIs (GAT-1 [2]; after blocking with tiagabine 0.5 mg/kg): 1.7 mL/cm^3
- Median VT across ROIs (GAT-1 [2]; baseline): 3.5 mL/cm^3
- VT (GAT-1 [2]; Average of ROIs, baseline, 3 monkeys, mean ± SD): 3.40 ± 0.52 mL/cm^3
- VT (GAT-1 [2]; Average of ROIs, blocking (tiagabine 0.5 mg/kg), 3 monkeys, mean ± SD): 1.66 ± 0.11 mL/cm^3
- VT (GAT-1 [2]; Brain stem, baseline, averaged across 3 monkeys, mean ± SD): 2.61 ± 0.42 mL/cm^3
- VT (GAT-1 [2]; Brain stem, blocking (tiagabine 0.5 mg/kg), 3 monkeys, mean ± SD): 1.45 ± 0.20 mL/cm^3
- VT (GAT-1 [2]; Caudate nucleus, baseline, 3 monkeys, mean ± SD): 2.25 ± 0.13 mL/cm^3
- VT (GAT-1 [2]; Caudate nucleus, blocking (tiagabine 0.5 mg/kg), 3 monkeys, mean ± SD): 1.27 ± 0.11 mL/cm^3
- VT (GAT-1 [2]; Cerebellum, baseline, 3 monkeys, mean ± SD): 3.36 ± 0.39 mL/cm^3
- VT (GAT-1 [2]; Cerebellum, blocking (tiagabine 0.5 mg/kg), 3 monkeys, mean ± SD): 1.60 ± 0.13 mL/cm^3
- VT (GAT-1 [2]; Cingulate cortex, baseline, 3 monkeys, mean ± SD): 4.30 ± 0.39 mL/cm^3
- VT (GAT-1 [2]; Cingulate cortex, blocking (tiagabine 0.5 mg/kg), 3 monkeys, mean ± SD): 2.16 ± 0.18 mL/cm^3
- VT (GAT-1 [2]; Frontal cortex, baseline, 3 monkeys, mean ± SD): 3.73 ± 0.46 mL/cm^3
- VT (GAT-1 [2]; Frontal cortex, blocking (tiagabine 0.5 mg/kg), 3 monkeys, mean ± SD): 1.79 ± 0.04 mL/cm^3
- VT (GAT-1 [2]; Hippocampus, baseline, 3 monkeys, mean ± SD): 2.98 ± 1.10 mL/cm^3
- VT (GAT-1 [2]; Hippocampus, blocking (tiagabine 0.5 mg/kg), 3 monkeys, mean ± SD): 1.44 ± 0.07 mL/cm^3
- VT (GAT-1 [2]; Insula, baseline, 3 monkeys, mean ± SD): 4.46 ± 0.67 mL/cm^3
- VT (GAT-1 [2]; Insula, blocking (tiagabine 0.5 mg/kg), 3 monkeys, mean ± SD): 1.97 ± 0.07 mL/cm^3
- VT (GAT-1 [2]; Occipital cortex, baseline, 3 monkeys, mean ± SD): 4.55 ± 0.74 mL/cm^3
- VT (GAT-1 [2]; Occipital cortex, blocking (tiagabine 0.5 mg/kg), 3 monkeys, mean ± SD): 2.04 ± 0.11 mL/cm^3
- VT (GAT-1 [2]; Putamen, baseline, 3 monkeys, mean ± SD): 2.71 ± 0.05 mL/cm^3
- VT (GAT-1 [2]; Putamen, blocking (tiagabine 0.5 mg/kg), 3 monkeys, mean ± SD): 1.44 ± 0.12 mL/cm^3
- VT (GAT-1 [2]; Temporal cortex, baseline, 3 monkeys, mean ± SD): 4.48 ± 1.24 mL/cm^3
- VT (GAT-1 [2]; Temporal cortex, blocking (tiagabine 0.5 mg/kg), 3 monkeys, mean ± SD): 1.93 ± 0.05 mL/cm^3
- VT (GAT-1 [2]; Thalamus, baseline, 3 monkeys, mean ± SD): 1.96 ± 0.10 mL/cm^3
- VT (GAT-1 [2]; Thalamus, blocking (tiagabine 0.5 mg/kg), 3 monkeys, mean ± SD): 1.19 ± 0.17 mL/cm^3
- Radiotracer clearance time (half-life = ln(2)/k2) (GAT-1 [2]; brain, baseline): 175 ± 42 min
- Blood volume fraction (Vb) (GAT-1 [2]; mean ± SD, n = 66 (11 ROIs × 6 scans)): 0.036 ± 0.013 mL/cm^3
- Overall spatial correlation (r) of regional distribution with ^11C-flumazenil (GAT-1 [2]; nonhuman primates, P < 0.01, previously acquired ^11C-flumazenil data): 0.87
- BPND (GAT-1 [3]; Average of ROIs, baseline): 2.88 ± 0.59
- BPND (GAT-1 [3]; Average of ROIs, blocking): 0.90 ± 0.13
- BPND (GAT-1 [3]; Brain stem, baseline, BPND = VT/VND – 1 with averaged VND): 1.98 ± 0.48
- BPND (GAT-1 [3]; Brain stem, blocking, BPND = VT/VND – 1 with averaged VND): 0.66 ± 0.23
- BPND (GAT-1 [3]; Caudate nucleus, baseline): 1.57 ± 0.15
- BPND (GAT-1 [3]; Caudate nucleus, blocking): 0.45 ± 0.12
- BPND (GAT-1 [3]; Cerebellum, baseline): 2.84 ± 0.44
- BPND (GAT-1 [3]; Cerebellum, blocking): 0.83 ± 0.15
- BPND (GAT-1 [3]; Cingulate cortex, baseline): 3.91 ± 0.44
- BPND (GAT-1 [3]; Cingulate cortex, blocking): 1.46 ± 0.20
- BPND (GAT-1 [3]; Frontal cortex, baseline): 3.26 ± 0.52
- BPND (GAT-1 [3]; Frontal cortex, blocking): 1.04 ± 0.04
- BPND (GAT-1 [3]; Hippocampus, baseline): 2.40 ± 1.25
- BPND (GAT-1 [3]; Hippocampus, blocking): 0.64 ± 0.08
- BPND (GAT-1 [3]; Insula, baseline): 4.08 ± 0.76
- BPND (GAT-1 [3]; Insula, blocking): 1.25 ± 0.08
- BPND (GAT-1 [3]; Occipital cortex, baseline): 4.19 ± 0.84
- BPND (GAT-1 [3]; Occipital cortex, blocking): 1.32 ± 0.13
- BPND (GAT-1 [3]; Putamen, baseline): 2.09 ± 0.06
- BPND (GAT-1 [3]; Putamen, blocking): 0.64 ± 0.14
- BPND (GAT-1 [3]; Temporal cortex, baseline): 4.10 ± 1.41
- BPND (GAT-1 [3]; Temporal cortex, blocking): 1.20 ± 0.05
- BPND (GAT-1 [3]; Thalamus, baseline): 1.24 ± 0.11
- BPND (GAT-1 [3]; Thalamus, blocking): 0.36 ± 0.20
- VND (GAT-1 [3]; monkey 1): 1.03 mL/cm^3
- VND (GAT-1 [3]; monkey 2): 0.96 mL/cm^3
- VND (GAT-1 [3]; monkey 3): 0.64 mL/cm^3
- VND, mean ± SD across monkeys (GAT-1 [3]; occupancy plots, 3 monkeys, average rSE of 16%): 0.88 ± 0.21 mL/cm^3
- Occupancy (GAT-1 [3]; monkey 1): 65%
- Occupancy (GAT-1 [3]; monkey 2): 70%
- Occupancy (GAT-1 [3]; monkey 3): 71%
- Occupancy (overall) (GAT-1 [3]; tiagabine blocking): 69%
- Mean percent difference in VT on shortening scan from 180 to 120 min (GAT-1 [4]; hippocampus): 1%
- Mean percent difference in VT on shortening scan from 180 to 120 min (GAT-1 [4]; thalamus): −12%
- Mean percent difference in VT with respect to the 180-min value (GAT-1 [4]; frontal cortex): −5%
- Mean percent difference in VT with respect to the 180-min value (GAT-1 [4]; thalamus): 3%
- Free fraction [5]: 13.5 ± 1.4%
